Results from ChEMBL document CHEMBL1275529, “Improved antimicrobial activity of linezolid against vancomycin-intermediate Staphylococcus aureus” (2008).
Converted amounts (≈) assume the structure as drawn.

How the values were obtained:
[1] = system: Staphylococcus aureus; test: Antibacterial activity against vancomycin-susceptible Staphylococcus aureus AMC11094 after 24 hrs by Etest method; type: functional; conditions: AMC11094, 24 h
[2] = system: Staphylococcus aureus; test: Antibacterial activity against vancomycin-intermediate Staphylococcus aureus MI after 24 hrs by Etest method; type: functional
[3] = system: Staphylococcus aureus; test: Antibacterial activity against vancomycin-susceptible Staphylococcus aureus 99/3700-W after 24 hrs by Etest method; type: functional
[4] = system: Staphylococcus aureus; test: Antibacterial activity against vancomycin-susceptible Staphylococcus aureus N315-LR5-P1-1 assessed as inhibition of bacterial growth in Mueller-Hinton broth medium; type: functional
[5] = system: Staphylococcus aureus; test: Antibacterial activity against vancomycin-intermediate Staphylococcus aureus BR2 after 24 hrs by Etest method; type: functional; conditions: BR2, 24 h
[6] = system: Staphylococcus aureus; test: Antibacterial activity against vancomycin-susceptible Staphylococcus aureus BR1 after 24 hrs by Etest method; type: functional; conditions: BR1, 24 h
[7] = system: Staphylococcus aureus; test: Antibacterial activity against vancomycin-intermediate Staphylococcus aureus BR1 after 24 hrs by Etest method; type: functional; conditions: BR1, 24 h
[8] = system: Staphylococcus aureus; test: Antibacterial activity against vancomycin-susceptible Staphylococcus aureus N315-LR5-P1-4 assessed as inhibition of bacterial growth in Mueller-Hinton broth medium; type: functional
[9] = system: Staphylococcus aureus; test: Antibacterial activity against vancomycin-intermediate Staphylococcus aureus LIM2 phenotypic revertant after 24 hrs by Etest method; type: functional; conditions: LIM2, 24 h
[10] = system: Staphylococcus aureus; test: Antibacterial activity against vancomycin-susceptible Staphylococcus aureus MI after 24 hrs by Etest method; type: functional
[11] = system: Staphylococcus aureus; test: Antibacterial activity against vancomycin-susceptible Staphylococcus aureus N315-LR5-P1-3 assessed as inhibition of bacterial growth in Mueller-Hinton broth medium; type: functional
[12] = system: Staphylococcus aureus; test: Antibacterial activity against vancomycin-susceptible Staphylococcus aureus BR4 after 24 hrs by Etest method; type: functional; conditions: BR4, 24 h
[13] = system: Staphylococcus aureus; test: Antibacterial activity against vancomycin-susceptible Staphylococcus aureus N315-LR5-P1 assessed as inhibition of bacterial growth in brain heart infusion broth medium; type: functional
[14] = system: Staphylococcus aureus; test: Antibacterial activity against vancomycin-intermediate Staphylococcus aureus 99/3759-V phenotypic revertant after 24 hrs by Etest method; type: functional
[15] = system: Staphylococcus aureus; test: Antibacterial activity against vancomycin-intermediate Staphylococcus aureus Mu50 phenotypic revertant after 24 hrs by Etest method; type: functional; conditions: Mu50, 24 h
[16] = system: Staphylococcus aureus; test: Antibacterial activity against vancomycin-intermediate Staphylococcus aureus BR5-1 after 24 hrs by Etest method; type: functional; conditions: BR5-1, 24 h
[17] = system: Staphylococcus aureus; test: Antibacterial activity against vancomycin-intermediate Staphylococcus aureus 99/3700-W phenotypic revertant after 24 hrs by Etest method; type: functional
[18] = system: Staphylococcus aureus; test: Antibacterial activity against vancomycin-intermediate Staphylococcus aureus BR5-1 phenotypic revertant after 24 hrs by Etest method; type: functional; conditions: BR5-1, 24 h
[19] = system: Staphylococcus aureus; test: Antibacterial activity against vancomycin-susceptible Staphylococcus aureus N315-LR5-P1-4 assessed as inhibition of bacterial growth in brain heart infusion broth medium; type: functional; conditions: N315-LR5-P1-4, Brain
[20] = system: Staphylococcus aureus; test: Antibacterial activity against vancomycin-intermediate Staphylococcus aureus BR3 after 24 hrs by Etest method; type: functional; conditions: BR3, 24 h
[21] = system: Staphylococcus aureus; test: Antibacterial activity against vancomycin-intermediate Staphylococcus aureus Mu50 after 24 hrs by Etest method; type: functional; conditions: Mu50, 24 h
[22] = system: Staphylococcus aureus; test: Antibacterial activity against vancomycin-intermediate Staphylococcus aureus NJ after 24 hrs by Etest method; type: functional
[23] = system: Staphylococcus aureus; test: Antibacterial activity against vancomycin-intermediate Staphylococcus aureus BR1 phenotypic revertant after 24 hrs by Etest method; type: functional; conditions: BR1, 24 h
[24] = system: Staphylococcus aureus; test: Antibacterial activity against vancomycin-susceptible Staphylococcus aureus N315-LR5-P1 assessed as inhibition of bacterial growth in Mueller-Hinton broth medium; type: functional
[25] = system: Staphylococcus aureus; test: Antibacterial activity against vancomycin-intermediate Staphylococcus aureus LIM2 after 24 hrs by Etest method; type: functional; conditions: LIM2, 24 h
[26] = system: Staphylococcus aureus; test: Antibacterial activity against vancomycin-intermediate Staphylococcus aureus 99/3759-V after 24 hrs by Etest method; type: functional
[27] = system: Staphylococcus aureus; test: Antibacterial activity against vancomycin-intermediate Staphylococcus aureus 28160 after 24 hrs by Etest method; type: functional; conditions: Staphylococcus aureus, 28160, 24 h
[28] = system: Staphylococcus aureus; test: Antibacterial activity against vancomycin-intermediate Staphylococcus aureus MI phenotypic revertant after 24 hrs by Etest method; type: functional
[29] = system: Staphylococcus aureus; test: Antibacterial activity against vancomycin-susceptible Staphylococcus aureus 99/3759-V after 24 hrs by Etest method; type: functional
[30] = system: Staphylococcus aureus; test: Antibacterial activity against vancomycin-intermediate Staphylococcus aureus 99/3700-W after 24 hrs by Etest method; type: functional
[31] = system: Staphylococcus aureus; test: Antibacterial activity against vancomycin-intermediate Staphylococcus aureus BR4 after 24 hrs by Etest method; type: functional; conditions: BR4, 24 h
[32] = system: Staphylococcus aureus; test: Antibacterial activity against vancomycin-susceptible Staphylococcus aureus NJ after 24 hrs by Etest method; type: functional
[33] = system: Staphylococcus aureus; test: Antibacterial activity against vancomycin-susceptible Staphylococcus aureus BR5-1 after 24 hrs by Etest method; type: functional; conditions: BR5-1, 24 h
[34] = system: Staphylococcus aureus; test: Antibacterial activity against vancomycin-susceptible Staphylococcus aureus 28160 after 24 hrs by Etest method; type: functional; conditions: Staphylococcus aureus, 28160, 24 h
[35] = system: Staphylococcus aureus; test: Antibacterial activity against vancomycin-intermediate Staphylococcus aureus NJ phenotypic revertant after 24 hrs by Etest method
[36] = system: Staphylococcus aureus; test: Antibacterial activity against vancomycin-susceptible Staphylococcus aureus N315-LR5-P1-2 assessed as inhibition of bacterial growth in brain heart infusion broth medium; conditions: N315-LR5-P1-2, Brain
[37] = system: Staphylococcus aureus; test: microbe, parasite or virus in culture; conditions: Staphylococcus aureus, 28160, 24 h
Description: Antibacterial activity against vancomycin-intermediate Staphylococcus aureus 28160 phenotypic revertant after 24 hrs by Etest method

[38] = system: Staphylococcus aureus; test: Antibacterial activity against vancomycin-intermediate Staphylococcus aureus AMC11094 after 24 hrs by Etest method; conditions: AMC11094, 24 h
[39] = system: Staphylococcus aureus; test: Antibacterial activity against vancomycin-intermediate Staphylococcus aureus PC after 24 hrs by Etest method
[40] = system: Staphylococcus aureus; test: Antibacterial activity against vancomycin-intermediate Staphylococcus aureus IL after 24 hrs by Etest method
[41] = system: Staphylococcus aureus; test: Antibacterial activity against vancomycin-susceptible Staphylococcus aureus Mu50 after 24 hrs by Etest method; conditions: Mu50, 24 h

Structure (SMILES)	MIC [2] [µg/mL]	MIC [3] [µg/mL]	MIC [4] [µg/mL]	MIC [5] [µg/mL]	MIC [6] [µg/mL]	MIC [7] [µg/mL]	MIC [8] [µg/mL]	MIC [10] [µg/mL]	MIC [11] [µg/mL]	MIC [12] [µg/mL]	MIC [13] [µg/mL]	MIC [14] [µg/mL]	MIC [15] [µg/mL]	MIC [16] [µg/mL]	MIC [17] [µg/mL]	MIC [19] [µg/mL]	MIC [20] [µg/mL]	MIC [21] [µg/mL]	MIC [22] [µg/mL]	MIC [23] [µg/mL]	other results
CC(=O)NC[C@H]1CN(c2ccc(N3CCOCC3)c(F)c2)C(=O)O1 [LINEZOLID]	1.5 (≈ 4.45 µM)	3 (≈ 8.89 µM)	2.5 (≈ 7.41 µM)	1 (≈ 2.96 µM)	1.5 (≈ 4.45 µM)	1.25 (≈ 3.71 µM)	1.5 (≈ 4.45 µM)	3 (≈ 8.89 µM)	1.75 (≈ 5.19 µM)	3 (≈ 8.89 µM)	3 (≈ 8.89 µM)	1.5 (≈ 4.45 µM)	1.5 (≈ 4.45 µM)	1.5 (≈ 4.45 µM)	1.25 (≈ 3.71 µM)	1.5 (≈ 4.45 µM)	1 (≈ 2.96 µM)	0.38 (≈ 1.13 µM)	1.25 (≈ 3.71 µM)	1.5 (≈ 4.45 µM)	MIC [1]: 3 µg/mL (≈ 8.89 µM); MIC [9]: 1.5 µg/mL (≈ 4.45 µM); MIC [18]: 3 µg/mL (≈ 8.89 µM); MIC [24]: 3 µg/mL (≈ 8.89 µM); MIC [25]: 1 µg/mL (≈ 2.96 µM); MIC [26]: 1 µg/mL (≈ 2.96 µM); MIC [27]: 1.5 µg/mL (≈ 4.45 µM); MIC [28]: 1.5 µg/mL (≈ 4.45 µM); MIC [29]: 3 µg/mL (≈ 8.89 µM); MIC [30]: 1 µg/mL (≈ 2.96 µM); MIC [31]: 1.5 µg/mL (≈ 4.45 µM); MIC [32]: 3 µg/mL (≈ 8.89 µM); MIC [33]: 3 µg/mL (≈ 8.89 µM); MIC [34]: 3 µg/mL (≈ 8.89 µM)
CN[C@H](CC(C)C)C(=O)N[C@H]1C(=O)N[C@@H](CC(N)=O)C(=O)N[C@H]2C(=O)N[C@H]3C(=O)N[C@H](C(=O)N[C@H](C(=O)O)c4cc(O)cc(O)c4-c4cc3ccc4O)[C@H](O)c3ccc(c(Cl)c3)Oc3cc2cc(c3O[C@@H]2O[C@H](CO)[C@@H](O)[C@H](O)[C@H]2O[C@H]2C[C@](C)(N)[C@H](O)[C@H](C)O2)Oc2ccc(cc2Cl)[C@H]1O [VANCOMYCIN]	8 (≈ 5.52 µM)	1.5 (≈ 1.04 µM)	1.25 (≈ 0.863 µM)	6 (≈ 4.14 µM)	1.5 (≈ 1.04 µM)	6 (≈ 4.14 µM)	3 (≈ 2.07 µM)	1.25 (≈ 0.863 µM)	2.5 (≈ 1.73 µM)	1.5 (≈ 1.04 µM)	1.25 (≈ 0.863 µM)	8 (≈ 5.52 µM)	8 (≈ 5.52 µM)	5 (≈ 3.45 µM)	3 (≈ 2.07 µM)	5 (≈ 3.45 µM)	8 (≈ 5.52 µM)	6 (≈ 4.14 µM)	8 (≈ 5.52 µM)	3 (≈ 2.07 µM)	MIC [35]: 5 µg/mL (≈ 3.45 µM); MIC [36]: 3 µg/mL (≈ 2.07 µM); MIC [37]: 3 µg/mL (≈ 2.07 µM); MIC [24]: 0.75 µg/mL (≈ 0.518 µM); MIC [38]: 6 µg/mL (≈ 4.14 µM); MIC [39]: 6 µg/mL (≈ 4.14 µM); MIC [26]: 5 µg/mL (≈ 3.45 µM); MIC [40]: 6 µg/mL (≈ 4.14 µM); MIC [31]: 6 µg/mL (≈ 4.14 µM); MIC [32]: 3 µg/mL (≈ 2.07 µM); MIC [33]: 1.25 µg/mL (≈ 0.863 µM); MIC [41]: 2.5 µg/mL (≈ 1.73 µM)
